The supplement of paper PMC13380429

Experiments:
Caco-2 [1] = assay: cell viability relative to DMSO; higher = less toxic; conditions: 72 h
HepG2 [2] = assay: as above; conditions: 72 h
U2OS [3] = assay: as above; conditions: 72 h
Vero E6 [4] = assay: as above; conditions: 72 h
Calu-3 [5] = assay: as above; conditions: 72 h
[6] = tested on: A549-ACE2 infected with SARS-CoV-2; assay: SARS-CoV-2 infection rate relative to DMSO; higher = more infection; conditions: 24 h
Caco-2 [7] = assay: drug sensitivity score (DSS) for viability; higher = more toxic; extreme values may be limits of the assay; conditions: 72 h
HepG2 [8] = assay: as above; conditions: 72 h
U2OS [9] = assay: as above; conditions: 72 h
Vero E6 [10] = assay: as above; conditions: 72 h
Calu-3 [11] = assay: as above; conditions: 72 h
Caco-2 [12] = assay: relative viability EC50 (midpoint between 100% and the lowest measured viability); higher = less toxic; conditions: 72 h
HepG2 [13] = assay: as above; conditions: 72 h
U2OS [14] = assay: as above; conditions: 72 h
Calu-3 [15] = assay: as above; conditions: 72 h
[16] = tested on: A549-ACE2 infected with SARS-CoV-2; assay: morphology score (similarity to uninfected cells); higher = more like uninfected cells; conditions: 24 h
A549-ACE2 [17] = assay: phospholipidosis EC50; higher = less potent phospholipidosis inducer
[18] = tested on: A549-ACE2 infected with SARS-CoV-2; assay: cell count relative to DMSO; higher = less toxic; conditions: 24 h
A549-ACE2 [19] = assay: drug-induced phospholipidosis relative to tamoxifen; higher = more phospholipidosis
Vero E6 [20] = assay: relative viability EC50 (midpoint between 100% and the lowest measured viability); higher = less toxic; conditions: 72 h

Cc1[nH]c(/C=C2\C(=O)Nc3ccc(S(=O)(=O)Cc4c(Cl)cccc4Cl)cc32)c(C)c1C(=O)N1CCC[C@@H]1CN1CCCC1
Conditions	SARS-CoV-2 infection rate [%]	cell count [%]	cell viability [%]	morphology score	phospholipidosis EC50 [µM]
A549-ACE2 [17], 24 h	–	–	–	–	3.45
A549-ACE2 [17], 48 h	–	–	–	–	3.61
A549-ACE2 [17], 72 h	–	–	–	–	3.54
Caco-2 [1], 1 nM	–	–	90.9	–	–
Caco-2 [1], 10 nM	–	–	99.2	–	–
Caco-2 [1], 100 nM	–	–	104	–	–
Caco-2 [1], 1000 nM	–	–	103	–	–
Caco-2 [1], 10000 nM	–	–	3.7	–	–
Calu-3 [5], 1 nM	–	–	100	–	–
Calu-3 [5], 10 nM	–	–	98.2	–	–
Calu-3 [5], 100 nM	–	–	109	–	–
Calu-3 [5], 1000 nM	–	–	100	–	–
Calu-3 [5], 10000 nM	–	–	4.3	–	–
HepG2 [2], 1 nM	–	–	102	–	–
HepG2 [2], 10 nM	–	–	96.9	–	–
HepG2 [2], 100 nM	–	–	102	–	–
HepG2 [2], 1000 nM	–	–	104	–	–
HepG2 [2], 10000 nM	–	–	3.3	–	–
U2OS [3], 1 nM	–	–	97.2	–	–
U2OS [3], 10 nM	–	–	100	–	–
U2OS [3], 100 nM	–	–	95.7	–	–
U2OS [3], 1000 nM	–	–	103	–	–
U2OS [3], 10000 nM	–	–	0.9	–	–
Vero E6 [4], 1 nM	–	–	99.9	–	–
Vero E6 [4], 10 nM	–	–	97.5	–	–
Vero E6 [4], 100 nM	–	–	101	–	–
Vero E6 [4], 1000 nM	–	–	91.1	–	–
Vero E6 [4], 10000 nM	–	–	57	–	–
[6], 0.1 µM	109	–	–	–	–
[6], 0.3 µM	83	–	–	–	–
[6], 1 µM	74	–	–	–	–
[6], 3 µM	26	–	–	–	–
[16], 0.1 µM	–	–	–	-0.01	–
[16], 0.3 µM	–	–	–	0.51	–
[16], 1 µM	–	–	–	0.6	–
[16], 3 µM	–	–	–	0.73	–
[18], 0.1 µM	–	98	–	–	–
[18], 0.3 µM	–	109	–	–	–
[18], 1 µM	–	108	–	–	–
[18], 3 µM	–	115	–	–	–

Conditions	drug sensitivity score	relative viability EC50 [µM]
Caco-2 [7]	5.1	–
Caco-2 [12]	–	3.36
Calu-3 [11]	5.4	–
Calu-3 [15]	–	3.17
HepG2 [8]	5.1	–
HepG2 [13]	–	3.39
U2OS [9]	5.3	–
U2OS [14]	–	3.35
Vero E6 [10]	3.6	–

drug-induced phospholipidosis [%], A549-ACE2 [19]
Conditions	0.3 µM	0.833333 µM	3.33333 µM	6.66667 µM	10 µM
24 h	20.1	33	77.3	173	149
48 h	14.3	18.9	53.1	177	149
72 h	13.7	15.6	43.6	149	64.6

C[C@@H]1C[C@H]2[C@@H]3CCC4=CC(=O)C=C[C@]4(C)[C@@]3(Cl)[C@@H](O)C[C@]2(C)[C@@]1(OC(=O)c1ccco1)C(=O)CCl [MOMETASONE FUROATE]
Conditions	SARS-CoV-2 infection rate [%]	cell count [%]	cell viability [%]	morphology score	phospholipidosis EC50 [µM]
A549-ACE2 [17], 24 h	–	–	–	–	3.35
Caco-2 [1], 1 nM	–	–	91.3	–	–
Caco-2 [1], 10 nM	–	–	109	–	–
Caco-2 [1], 100 nM	–	–	85.6	–	–
Caco-2 [1], 1000 nM	–	–	96	–	–
Caco-2 [1], 10000 nM	–	–	83.1	–	–
Calu-3 [5], 1 nM	–	–	98.7	–	–
Calu-3 [5], 10 nM	–	–	101	–	–
Calu-3 [5], 100 nM	–	–	90.3	–	–
Calu-3 [5], 1000 nM	–	–	97.1	–	–
Calu-3 [5], 10000 nM	–	–	90.9	–	–
HepG2 [2], 1 nM	–	–	114	–	–
HepG2 [2], 10 nM	–	–	116	–	–
HepG2 [2], 100 nM	–	–	122	–	–
HepG2 [2], 1000 nM	–	–	97.4	–	–
HepG2 [2], 10000 nM	–	–	105	–	–
U2OS [3], 1 nM	–	–	98.5	–	–
U2OS [3], 10 nM	–	–	101	–	–
U2OS [3], 100 nM	–	–	94	–	–
U2OS [3], 1000 nM	–	–	102	–	–
U2OS [3], 10000 nM	–	–	92.8	–	–
Vero E6 [4], 1 nM	–	–	109	–	–
Vero E6 [4], 10 nM	–	–	100	–	–
Vero E6 [4], 100 nM	–	–	103	–	–
Vero E6 [4], 1000 nM	–	–	102	–	–
Vero E6 [4], 10000 nM	–	–	100	–	–
[6], 0.3 µM	99	–	–	–	–
[6], 3 µM	69	–	–	–	–
[6], 10 µM	28	–	–	–	–
[6], 30 µM	71	–	–	–	–
[16], 0.3 µM	–	–	–	0.19	–
[16], 3 µM	–	–	–	0.42	–
[16], 10 µM	–	–	–	0.6	–
[16], 30 µM	–	–	–	0.34	–
[18], 0.3 µM	–	97	–	–	–
[18], 3 µM	–	103	–	–	–
[18], 10 µM	–	108	–	–	–
[18], 30 µM	–	94	–	–	–

Conditions	drug sensitivity score	relative viability EC50 [µM]
Caco-2 [7]	0.5	–
Caco-2 [12]	–	> 10
Calu-3 [11]	0	–
Calu-3 [15]	–	> 10
HepG2 [8]	0	–
HepG2 [13]	–	> 10
U2OS [9]	0	–
U2OS [14]	–	> 10
Vero E6 [10]	0	–
Vero E6 [20]	–	> 10

drug-induced phospholipidosis [%], A549-ACE2 [19]
Conditions	0.3 µM	0.833333 µM	3.33333 µM	6.66667 µM	10 µM	30 µM
24 h	10.4	17.5	33.2	53.3	54.9	51.9
48 h	5.23	13.8	27.7	41.1	38.5	41.2
72 h	-4	-3.08	16.9	30.4	39.5	29.6

COc1ccccc1C1(O)CCN(CCCn2c3ccccc3c3ccccc32)CC1 [NNC-05-2090]
Conditions	SARS-CoV-2 infection rate [%]	cell count [%]	cell viability [%]	morphology score	phospholipidosis EC50 [µM]
A549-ACE2 [17], 24 h	–	–	–	–	1.98
A549-ACE2 [17], 48 h	–	–	–	–	3.85
A549-ACE2 [17], 72 h	–	–	–	–	4.18
Caco-2 [1], 1 nM	–	–	97.4	–	–
Caco-2 [1], 10 nM	–	–	91.7	–	–
Caco-2 [1], 100 nM	–	–	109	–	–
Caco-2 [1], 1000 nM	–	–	83.1	–	–
Caco-2 [1], 10000 nM	–	–	68.4	–	–
Calu-3 [5], 1 nM	–	–	94.1	–	–
Calu-3 [5], 10 nM	–	–	99.9	–	–
Calu-3 [5], 100 nM	–	–	90.7	–	–
Calu-3 [5], 1000 nM	–	–	89.1	–	–
Calu-3 [5], 10000 nM	–	–	7.5	–	–
HepG2 [2], 1 nM	–	–	94.9	–	–
HepG2 [2], 10 nM	–	–	99.7	–	–
HepG2 [2], 100 nM	–	–	90.4	–	–
HepG2 [2], 1000 nM	–	–	99.9	–	–
HepG2 [2], 10000 nM	–	–	40.8	–	–
U2OS [3], 1 nM	–	–	99.4	–	–
U2OS [3], 10 nM	–	–	94.1	–	–
U2OS [3], 100 nM	–	–	102	–	–
U2OS [3], 1000 nM	–	–	94.6	–	–
U2OS [3], 10000 nM	–	–	82.9	–	–
Vero E6 [4], 1 nM	–	–	90.9	–	–
Vero E6 [4], 10 nM	–	–	97.5	–	–
Vero E6 [4], 100 nM	–	–	88.1	–	–
Vero E6 [4], 1000 nM	–	–	92.1	–	–
Vero E6 [4], 10000 nM	–	–	74.5	–	–
[6], 0.1 µM	98	–	–	–	–
[6], 0.3 µM	98	–	–	–	–
[6], 1 µM	86	–	–	–	–
[6], 3 µM	34	–	–	–	–
[16], 0.1 µM	–	–	–	0.12	–
[16], 0.3 µM	–	–	–	0.04	–
[16], 1 µM	–	–	–	0.29	–
[16], 3 µM	–	–	–	0.85	–
[18], 0.1 µM	–	98	–	–	–
[18], 0.3 µM	–	106	–	–	–
[18], 1 µM	–	109	–	–	–
[18], 3 µM	–	119	–	–	–

Conditions	drug sensitivity score	relative viability EC50 [µM]
Caco-2 [7]	3.4	–
Calu-3 [11]	7	–
Calu-3 [15]	–	2.19
HepG2 [8]	3.2	–
HepG2 [13]	–	3.14
U2OS [9]	0.9	–
U2OS [14]	–	> 10
Vero E6 [10]	1.9	–

drug-induced phospholipidosis [%], A549-ACE2 [19]
Conditions	0.3 µM	0.833333 µM	3.33333 µM	6.66667 µM	10 µM
24 h	3.96	10.5	87.6	108	101
48 h	4.69	12.2	64.2	102	116
72 h	5.37	9.7	49.7	106	121
